Results as given in patent US9102648B1, “Bioavailable diacylhydrazine ligands for modulating the expression of exogenous genes via an ecdysone receptor complex” (Intrexon Corporation, priority 2003, dated 2015).
Values after ≈ are worked out from the molar mass of the structure shown.

What was measured:
physchem [1] = settings: pH 7.4, aqueous buffer, thermodynamic from solid
Description: Equilibrium solubility was measured in pH 7.4 aqueous buffer. The buffer was prepared by adjusting the pH of a 0.07 M solution of NaH2PO4 to pH 7.4 with 10 N NaOH. […] At least 1 mg of powder was combined with 1 mL of buffer to make >1 mg/mL mixture. These samples were shaken for ≧2 hours and left to stand overnight at room temperature. The samples were then filtered through a 0.45-μm Nylon syringe filter that was first saturated with the sample. The filtrate was sampled twice, consecutively. The filtrate was assayed by HPLC against standards prepared in methanol.

physchem [2] = settings: water, kinetic from dmso stock
Description: Aqueous solutions are prepared as follows in triplicate: 50 μl of a 10,000 ppm solution (2,000 μg of solid dissolved in 200 μl of methanol) of the substrate in methanol or DMSO is added to 1 mL of de-ionized water in a 2 dram or smaller vial with magnetic stirring. Stirring is continued overnight at ambient temperature. The slurry is taken up into a syringe with a luer tip. The contents are passed through a new 13 mm 0.2 ρM Acrodisc filter (tuffryn or glass fiber) into an autosampler bottle. For preparation of calibration standard solutions: dilutions of the 10,000 ppm solution were prepared at 10, 5, 1, 0.5, and 0.2 ppm. […] For more soluble materials, dilution of the samples into this range is preferable to increasing the calibration range because the non-linearity of the response results in less useful calibration curves. However a shift in the range of calibration standards is required for very insoluble compounds.
Chromatography of the samples was then preformed. For most diacylhydrazines the following conditions were adequate for the measurement. Other columns and gradients may be substituted as appropriate.
Analysis of the test samples is conducted as follows: Each solubility replicate is analyzed in duplicate. […] Standard curves are obtained from duplicate injections of the standards. The concentration of the substrate is determined by calculation from the equation relating concentration and response.

[3] = tested on: mutated ecdysone receptor-based gene switch; assay: In vivo SEAP induction, ligand administered in rodent chow; set-up: species or system C57BL/6 mouse; settings: feed 2 g/kg ad libitum
Description: Applicants' ligands are useful in various applications including gene therapy, expression of proteins of interest in host cells, production of transgenic organisms, and cell-based assays. In vivo induction of a reporter enzyme with various ligands of the present invention was evaluated in a C57BL/6 mouse model system containing a gene switch.
Each element of the gene switch was on a separate plasmid. Receptor expression was under the control of a CMV promoter (SEQ ID NO: 15). Induction was evaluated by the amount of reporter protein expressed in the presence of ligand.
SEAP expression in serum of mice was evaluated after electroporation of the gene switch into mouse quadriceps. Mice were anesthetized with 2 μL/g of a mixture of ketamine (100 mg/mL) and xylazine (20 mg/mL). Animals were then shaved, DNA vectors injected into the muscle in a volume of 2×50 μL polyglutamic acid (12 mg/mL water), electrode conductivity gel applied, and an electrode caliber (1 cm×1 cm; model 384) was placed on hind leg. The muscle was electroporated with 200 V/cm, 8 times, for 20 msec/pulse, at 1 sec time intervals. The transverse electrical field direction was reversed after the animals received half of the pulses. Electroporation was performed with an ECM 830 electroporator from BTX Molecular Delivery Systems.
In some experiments mice received an intraperitoneal injection (IP) of 2.6 μmol of ligand in 50 μL of DMSO 3 days after electroporation of the gene switch. In other experiments the concentration of ligand was decrease to 26 nmol/50 μL of DMSO/mouse. SEAP expression was evaluated 2-11 days after ligand administration. In other experiments ligand was administered in rodent chow. The chow was prepared by dissolving 2 g of ligand in 20 mL of acetone and adding it to 1 kg of LabDiet 5010 autoclavable chow from Purina Mills. This was thoroughly mixed in a Hobart mixer and then mixed for an additional 15 min in a Cross Blend mixer. Animals received chow ad libitum for 1, 2, or 3 days. All values are the average from four animals. Background SEAP in sera from animals treated with vector alone without ligand addition was 0-11 ng/mL serum.
Mouse serum was obtained by centrifugation of blood acquired by retroorbital bleeding with a small glass capillary tube. SEAP quantification was determined using a Clontech Great Escape chemiluminescence kit and by comparison with the Clontech SEAP standard.
Table 11: Induction of SEAP in C57BL/6 mice with GS™-E ligand or RG-103309 administered in rodent chow. SEAP expression in serum of mice was evaluated after electroporation of the gene expression cassettes into mouse quadriceps. Mice received GS™-E ligand or RG-103309 in their feed (2 g/kg) 3 days after electroporation. Feed was administered ad libitum for 1, 2, or 3 days. After each interval ligand-treated feed was removed and animals received untreated feed. Values are the average from 4 animals.

Row | SMILES | solubility (physchem [1]) | solubility kinetic (physchem [2]) | Secreted Alkaline Phosphatase Day 2 ([3]; dose period 1 day) | Secreted Alkaline Phosphatase Day 3 ([3]; dose period 1 day) | Secreted Alkaline Phosphatase Day 7 ([3]; dose period 1 day) | Secreted Alkaline Phosphatase Day 2 ([3]; dose period 2 day) | Secreted Alkaline Phosphatase Day 3 ([3]; dose period 2 day) | Secreted Alkaline Phosphatase Day 7 ([3]; dose period 2 day) | Secreted Alkaline Phosphatase Day 2 ([3]; dose period 3 day) | Secreted Alkaline Phosphatase Day 3 ([3]; dose period 3 day) | Secreted Alkaline Phosphatase Day 7 ([3]; dose period 3 day)
1 | Cc1cc(C)cc(C(=O)N(NC(=O)c2ccc3c(c2C)OCCO3)C(C)(C)C)c1 [RG-102317, N-(5-methyl-1,4-benzodioxan-6-carbonyl)-N′-(tert-butyl)-N′-(3,5-dimethylbenzoyl)hydrazine] | 4.3 µg/mL (≈ 10.8 µM) | 10.1 µM (≈ 4 µg/mL) | – | – | – | – | – | – | – | – | –
2 | CCc1c(OC)cccc1C(=O)NN(C(=O)c1cc(C)cc(C)c1)C(C)(C)C [RG-102240, N-(3-methoxy-2-ethylbenzoyl)-N′-(3,5-dimethylbenzoyl)-N′-tert-butylhydrazine] | – | – | 7,302 ng/ml mouse sera | 7,670 ng/ml mouse sera | 3,784 ng/ml mouse sera | 13,046 ng/ml mouse sera | 15,831 ng/ml mouse sera | 8,816 ng/ml mouse sera | 8,064 ng/ml mouse sera | 11,392 ng/ml mouse sera | 8,372 ng/ml mouse sera
3 | CCC(N(NC(=O)c1cccc(C)c1C)C(=O)c1cc(C)cc(C)c1)C(C)(C)C (centres unmarked) [RG-103309, 3,5-dimethyl-benzoic acid N′-(2,3-dimethyl-benzoyl)-N-(1-ethyl-2,2-dimethyl-propyl)-hydrazide] | – | – | 9,003 ng/ml mouse sera | 14,850 ng/ml mouse sera | 5,172 ng/ml mouse sera | 6,971 ng/ml mouse sera | 16,518 ng/ml mouse sera | 7,460 ng/ml mouse sera | 11,126 ng/ml mouse sera | 20,373 ng/ml mouse sera | 11,549 ng/ml mouse sera
